From patent US20160251402A1, “MICROPEPTIDES AND USE OF SAME FOR MODULATING GENE EXPRESSION” (UNIVERSITE PAUL SABATIER TOULOUSE III, priority 2013, published 2016) come the findings set out here.

For test [1], the system named is Arabidopsis thaliana root growth. Briefly: Root growth in Arabidopsis thaliana. The class given is in vivo. To be noted: plant treated with AtmiPEP165a vs control plant of the same age.
For test [2], the system named is AtmiR165a. Briefly: Accumulation of AtmiR165a in the model plant of tobacco. Type of test: in vivo, Nicotiana benthamiana. To be noted: tobacco expressing AtmiR165a, overexpression of AtmiORF165a. The protocol:
(§1) At present, AtmiPEP165a and AtmiPEP319a2, identified in Arabidopsis thaliana, have already been characterized.
(§2) The total RNA was extracted from roots of M. truncatula or from tobacco leaves using the extraction kit RNeasy Plant Mini Kit (Qiagen). The reverse transcription was performed using the reverse transcriptase SuperScript II (Invitrogen) starting from 500 ng of total RNA. Three repetitions (n=3) were carried out, each with two technical repetitions. Each experiment was repeated from two to three times. The amplifications by qPCR were carried out using a LightCycler 480 System thermocycler (Roche Diagnostics) by the method described in Lauressergues et al. (Plant J., 72(3): 512-22, 2012).
(§3) For the miPEPs 165a and 319a, the corresponding miORFs were cloned into pBIN19 by the method described in Combier et al. (Genes & Dev, 22: 1549-1559, 2008).
(§4) The composite plants having roots transformed with Agrobacterium rhizogenes were obtained by the method described in Boisson-Dernier et al. (Mol Plant-Microbe Interact, 18: 1269-1276, 2005). The transformed roots were verified and selected by observations of DsRED with a binocular fluorescence magnifier. The control roots correspond to roots transformed with A. rhizogenes not containing the pPEX-DsRED vector. Transformation of the tobacco leaves was carried out by the method described in Combier et al. (Genes & Dev, 22: 1549-1559, 2008).

For test [3], the system named is AtmiR165a. The test can be described thus: Northern blot of AtmiR165a in A. thaliana roots. The class given is in vivo, Arabidopsis thaliana. Conditions: 0.1 μM synthetic peptide dissolved in water vs water; U6 loading control.
For test [4], the system named is pri-miR165a. Briefly: RNA stability of pri-miR165a in the presence of cordycepin. Type of test: in vivo, Arabidopsis thaliana. Conditions: in the presence of cordycepin (inhibitor of RNA synthesis), peptide at 10 μM. As to the method:
For each condition, two week old plants that have been cultivated vertically on solid MS medium have been transferred in 6-well plates containing 1 ml of liquid MS medium. […] Each indivual experiment has been made 3 times.

For another test, the system named is REVOLUTA: REV. The test can be described thus: Expression of REVOLUTA (REV) in roots of A. thaliana. Type of test: in vivo, Arabidopsis thaliana. To be noted: roots treated with 0.01, 0.1, 1 or 10 μM peptide vs water.
In a further test the test system is PHAVOLUTA: PHV. Briefly: Expression of PHAVOLUTA (PHV) in roots of A. thaliana. To be noted: roots treated with 0.01, 0.1, 1 or 10 μM peptide vs water. The class given is in vivo, Arabidopsis thaliana.
Test [5] deals with AtmiR165a. Briefly: Accumulation of AtmiR165a in roots of A. thaliana (relative expression). To be noted: roots treated with 0.01, 0.1, 1 or 10 μM peptide vs water. Type of test: in vivo, Arabidopsis thaliana.
For test [6], the system named is pri-miR165a. The test can be described thus: Relative expression of pri-miR165a in A. thaliana (Col-0 and nrpb2-3). The class given is in vivo, Arabidopsis thaliana.
Text: Moreover, to determinate the mode of action of miPEPs regarding the accumulation of their own miRs, the expression of pri-miR165a has been analysed in wildtype plants and in plants that have been transformed to overexpress miPEP165a (FIG. 35).
Moreover, the expression of pri-miR165a has been analysed in wildtype plants (Col-0 plants) and in mutated plants having a low allele of the second large subunit of RNA polymerase II (nrpb2-3 plants). […] It appears that the miPEP operates as a transcription regulator.
as §2

Another test relates to PHABOLUSA: PHB. Briefly: Expression of PHABOLUSA (PHB) in roots of A. thaliana. Type of test: in vivo, Arabidopsis thaliana. To be noted: roots treated with 0.01, 0.1, 1 or 10 μM peptide vs water.
In test [7] the test system is AtmiR164a. Briefly: Northern blot of AtmiR164a in A. thaliana roots. The class given is in vivo, Arabidopsis thaliana. Conditions: 0.1 μM synthetic peptide dissolved in water vs water; U6 loading control. As to the method:
Northern blot analysis was carried out according to the protocol described in Lauressergues et al. Plant J., 72(3): 512-22, 2012.
The biological samples were homogenized in a buffer containing 0.1 M of NaCl, 2% of SDS, 50 mM of Tris-HCl (pH 9), 10 mM of EDTA (pH 8) and 20 mM of mercaptoethanol, and the RNA was extracted twice with a phenol/chloroform mixture and was precipitated with ethanol.
The RNA was loaded on PAGE 15% gel and transferred to a nylon membrane (HybondNX, Amersham). RNA was hybridized with a radioactive oligonucleotide probe labelled at its end, in order to detect the RNA U6 or for miR164a.
The hybridizations were carried out at 55° C. The hybridization signals were quantified using a phosphorimager (Fuji) and normalized with the signal of the specific probe of RNA U6.

The next test concerns Arabidopsis thaliana. The test can be described thus: Plant growth of Arabidopsis thaliana after 3 weeks of watering. The class given is in vivo. Conditions: watered with 0.1 μM of synthetic peptide, 3 weeks of growth, vs water.
Test [8] relates to AtmiR164a. The test can be described thus: Relative expression of AtmiR164a in A. thaliana (qRT-PCR). Type of test: in vivo, Arabidopsis thaliana. Conditions: plant watered once a day with peptide at 0.1 μM vs control plant. (Quantitative PCR measures a nucleic acid by following its amplification.)
The test system of a further test is MtmiR171e. The test can be described thus: Relative expression of MtmiR171e in M. truncatula. Type of test: in vivo, Medicago truncatula. To be noted: plant in which MtmiPEP171e is overexpressed vs control plant. As to the method: as §2, §4
Another test concerns MtmiR169d. The test can be described thus: Relative expression of MtmiR169d in M. truncatula. Type of test: in vivo, Medicago truncatula. The protocol: as §2
For the next test, the system named is AtmiR160b. Briefly: Relative expression of AtmiR160b in A. thaliana. To be noted: plant in which AtmiPEP160b1 is overexpressed vs control plant. Type of test: in vivo, Arabidopsis thaliana.
Test [9] concerns AtmiR319a. The test can be described thus: Accumulation of AtmiR319a in the model plant of tobacco. Type of test: in vivo, Nicotiana benthamiana. Conditions: tobacco expressing AtmiR319a, overexpression of AtmiORF319a. The protocol: as §1, §2, §3, §4
Test [10] relates to AtmiR319a. Briefly: Relative expression of AtmiR319a in A. thaliana (qRT-PCR). To be noted: plant in which AtmiPEP319a1 is overexpressed vs control plant. Type of test: in vivo, Arabidopsis thaliana.
The subject of a further test is DmmiR8. Briefly: Relative expression of Pre-miR8 in transfected Drosophila melanogaster cells. Type of test: cell-based. As to the method:
S2 cells are cultured in a T75 flask in 12 mL of Schneider's medium (GIBCO), containing 1% of penicillin 100 U/mL and […] (Sigma) and 10% of decomplemented foetal calf serum (30 min at 56° C.). The transient transfections are carried out using the FuGENE® HD transfection kit (Roche), according to the recommendations. Conventionally, 1.5 million S2 cells, previously seeded in 6-well plates (3 ml of medium per well), are transfected with 250 ng of total plasmid DNA. The DNA is brought into contact with the Fugene (3 μl) in 100 μl of OPTIMEM (GIBCO). After 20 minutes, the transfection reagent formed is brought into contact with the cells in the culture medium. The RNA of the cells is extracted 66 h after transfection.

“Also recorded” adds a separate entry of the source.

Take “MRVKLFQLRGMLSGSRIL (listed as Arabidopsis thaliana) [AtmiPEP165a]”: the root growth phenotype result in [1] is reported as “greatly accelerated root growth”. In the test on AtmiR165a [2], the “accumulation of AtmiR165a” value was “increase in the accumulation”. The “accumulation of AtmiR165a (Northern blot)” value in the test with AtmiR165a [3] is on record as “increase in the accumulation of miR165a”. For the same molecule, the “stability of pri-miR165a” value with pri-miR165a [4] is “does not induce a better stability of pri-miR165a”; in the test with pri-miR165a [4] (listed as miPEP165a) it was “does not operate as a RNA stabilizer, but rather as a transcription activator of pri-miR165a”. Also, in the test on REVOLUTA: REV, the “relative expression of REV” value is reported as “negative regulation of its target genes”. In addition, the “relative expression of PHV” value with PHAVOLUTA: PHV is “negative regulation of its target genes”. Besides, the “relative expression of AtmiR165a” value was “dose-dependent effect of the accumulation of AtmiR165a” in the test on AtmiR165a [5] and “dose-dependent effect on the accumulation of miR165a” with AtmiR165a [5] (listed as miPEP165a). The “relative expression of pri-miR165a” value in the test on pri-miR165a [6] (nrpb2-3 mutated plants vs wildtype (Col-0), water or peptide at 10 μM) is listed as “not capable of accumulating AtmiR165a in response to AtmiPEP165a”; in the test on pri-miR165a [6] (nrpb2-3 mutated plants vs wildtype (Col-0), water or peptide at 10 μM, listed as miPEP165a), “mutated plants do not show an increase in the accumulation of pri-miR165 in response to miPEP165a”; with pri-miR165a [6] (roots watered once a day with peptide at 10 μM vs control roots), “increase in the relative expression of AtmiR165a”. Further, in the test on pri-miR165a [6] (plants that overexpress miPEP165a vs wildtype plants), the “expression of pri-miR165a” value is “enhanced”. For the same molecule, the “relative expression of PHB” value in the test on PHABOLUSA: PHB is “negative regulation of its target genes”.
With “MPSWHGMVLLPYVKHTHASTHTHTHNIYGCACELVFH [AtmiPEP164a1]”, the “accumulation of AtmiR164a (Northern blot)” value in the test with AtmiR164a [7] is “increase in the accumulation of miR164a”. Moreover, in the test with Arabidopsis thaliana, the plant growth entry is given as “increases plant growth significantly”. The “relative expression of AtmiR164a” value in the test on AtmiR164a [8] was “increase in the relative expression of AtmiR164a”.
In the case of “MMVFGKPKKAMLVRFNPKTDLHV (listed as Medicago truncatula) [MtmiPEP171e]”, the “relative expression of MtmiR171e” value in the test with MtmiR171e was “increase in the relative expression of MtmiR171e; also recorded: induces an accumulation of MtmiR171e”.
For “MVKESFMERLKVR (listed as Medicago truncatula) [MtmiPEP169d]”, the “accumulation of MtmiR169d” value with MtmiR169d (overexpression of the miPEP in M. truncatula (as worded in Example 1B)) is “induces an accumulation of MtmiR169d”. Further, the “relative expression of MtmiR169d” value with MtmiR169d (plant watered once a day with peptide at 0.1 μM vs control plant) was “increase in the relative expression of MtmiR169d”.
“MFSPQ (listed as Arabidopsis thaliana) [AtmiPEP160b1]”: in the test on AtmiR160b, the “relative expression of AtmiR160b” value is listed as “increase in the relative expression of AtmiR160b; also recorded: induces an accumulation of AtmiR160b”.
For the molecule “MFQTLYLFIYIHTNILLLS (listed as Arabidopsis thaliana) [AtmiPEP319a2]”, the “accumulation of AtmiR319a” value in the test on AtmiR319a [9] is “increase in the accumulation”.
In the case of “MNIHTYHHLLFPSLVFHQSSDVPNALSLHIHTYEYIIVVIDPFRITLAFR [AtmiPEP319a1]”, in the test on AtmiR319a [10], the “relative expression of AtmiR319a” value is reported as “increase in the accumulation of AtmiR319a; also recorded: increase in the relative expression of AtmiR319a; also recorded: increase in the accumulation of miR319a”. Moreover, the plant growth entry in the test with Arabidopsis thaliana is “increases plant growth significantly”.

B1: MEPGFVFVLFPTHLSTQHTQREKSILVMGLNLQSAKQSDKQNSKERKKNTQINSQRIPYRQGGQCSKVLSP (peptide)
chain: MEPGFVFVLFPTHLSTQHTQREKSILVMGLNLQSAKQSDKQNSKERKKNTQINSQRIPYRQGGQCSKVLSP
modifications: Drosophila melanogaster
As for B1, the “relative expression of Pre-miR8” value in the test on DmmiR8 (cells overexpressing DmmiPEP8 vs miPEP8 with mutated start codons) and in the test on DmmiR8 (cells overexpressing wild-type DmmiR8 vs DmmiR8 with mutated miPEP8 start codons) was “increases the expression of DmmiR8” in each case.
